Like-named read-outs stand apart in the source and are kept apart here.
Assays:
Type in all cases: cell-based
[1] = system: SARS-CoV-2 Gamma strain (TY7-501)
[2] = system: SARS-CoV-2 Beta strain (TY8-612)
[3] = system: SARS-CoV-2 Alpha strain (QK002)
[4] = Gamma strain (TY7-501), CPE assay in Vero/TMPRSS2
[5] = Beta strain (TY8-612), CPE assay in Vero/TMPRSS2
[6] = Alpha strain (QK002), CPE assay in Vero/TMPRSS2

SMILES | EC50 [1, 4] | EC50 [2, 5] | EC50 [3, 6] | EC50 [1] | EC50 [2] | EC50 [3]
CCN(Cc1cc(Nc2ncnc3ccccc23)cc(Cl)c1O)C(C)C [Compound 11] | 5.4 µM | 9.3 µM | 3.8 µM |  |  | 
CC(C)N(Cc1cc(Nc2ncnc3ccccc23)cc(Cl)c1O)C(C)C [Compound 15] | 3.5 µM | 6.8 µM | 2.7 µM |  |  | 
CCN(Cc1cc(Nc2ncnc3ccccc23)cc(Cl)c1O)C1CCCCC1 [Compound 19] |  |  |  | 4.2 µM | 8.6 µM | 5.8 µM

From patent US20250325547A1, “ANTI-SARS-COV-2 DRUG” (KAGOSHIMA UNIVERSITY, priority 2021, published 2025)
